Columns and labels:
Test in all cases: relative viability (nuclei count vs DMSO), 5 days (fraction); higher = more cells survive
[1] = compound: COc1cc2nc(N3CCCN(C)CC3)nc(NC3CCN(Cc4ccccc4)CC3)c2cc1OC + N=C(N)NC(=N)NCCc1ccccc1 [Phenformin] (partner 250 µM)
Method in brief: (§1)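 Lung cancer cell lines were seeded in 1536-well plates and dosed by pin tool the next day, with either a single drug or a fixed anchor-drug dose combined with five library-drug doses (not always all listed) spaced in √10 steps. Five days later, one step fixed the cells and stained their nuclei (final 0.05% Triton X-100, 1% formaldehyde, 1 ug/ml Hoechst), and nuclei were counted on 4× images. Relative viability is the nuclei count in treated wells divided by the count in vehicle wells, and each value is the median of duplicate plates.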

[2] = compound: Cc1cc([C@@H](C)Nc2ccccc2C(=O)O)c2nc(N3CCOCC3)cc(=O)n2c1 [AZD6482] + CC(=O)Nc1cccc(-n2c(=O)n(C3CC3)c(=O)c3c(Nc4ccc(I)cc4F)n(C)c(=O)c(C)c32)c1 [Trametinib] (partner 0.02 µM)
Method in brief: as §1

[3] = compound: Cc1cc([C@@H](C)Nc2ccccc2C(=O)O)c2nc(N3CCOCC3)cc(=O)n2c1 [AZD6482] + O=C(CCCCCCC(=O)Nc1ccccc1)NO [Vorinostat] (partner 1 µM)
Method in brief: as §1

[4] = compound: Cc1cc([C@@H](C)Nc2ccccc2C(=O)O)c2nc(N3CCOCC3)cc(=O)n2c1 [AZD6482] + CS(=O)(=O)N1CCN(Cc2cc3nc(-c4cccc5[nH]ncc45)nc(N4CCOCC4)c3s2)CC1 [Pictilisib] (partner 1 µM)
Method in brief: as §1

NCI-H520
relative viability ([1]; first compound 0.2 µM): 0.558 | relative viability ([1]; first compound 0.6325 µM): 0.7 | relative viability ([1]; first compound 2 µM): 0.499 | relative viability ([1]; first compound 6.325 µM): 0.252 | relative viability ([2]; first compound 0.08 µM): 0.567 | relative viability ([2]; first compound 0.253 µM): 0.463 | relative viability ([2]; first compound 0.8 µM): 0.433 | relative viability ([2]; first compound 2.53 µM): 0.201 | relative viability ([2]; first compound 8 µM): 0.26 | relative viability ([3]; first compound 0.08 µM): 0.599 | relative viability ([3]; first compound 0.253 µM): 0.467 | relative viability ([3]; first compound 0.8 µM): 0.496 | relative viability ([3]; first compound 2.53 µM): 0.273 | relative viability ([3]; first compound 8 µM): 0.319 | relative viability ([4]; first compound 0.08 µM): 0.254 | relative viability ([4]; first compound 0.253 µM): 0.197 | relative viability ([4]; first compound 0.8 µM): 0.27 | relative viability ([4]; first compound 8 µM): 0.316

NCI-H596
relative viability ([1]; first compound 0.2 µM): 0.724 | relative viability ([1]; first compound 0.6325 µM): 0.756 | relative viability ([1]; first compound 2 µM): 0.696 | relative viability ([1]; first compound 6.325 µM): 0.798 | relative viability ([2]; first compound 0.08 µM): 0.633 | relative viability ([2]; first compound 0.253 µM): 0.817 | relative viability ([2]; first compound 0.8 µM): 0.774 | relative viability ([2]; first compound 2.53 µM): 0.589 | relative viability ([2]; first compound 8 µM): 0.59 | relative viability ([3]; first compound 0.08 µM): 0.464 | relative viability ([3]; first compound 0.253 µM): 0.555 | relative viability ([3]; first compound 0.8 µM): 0.732 | relative viability ([3]; first compound 2.53 µM): 0.691 | relative viability ([3]; first compound 8 µM): 0.556 | relative viability ([4]; first compound 0.08 µM): 0.324 | relative viability ([4]; first compound 0.253 µM): 0.349 | relative viability ([4]; first compound 0.8 µM): 0.508 | relative viability ([4]; first compound 2.53 µM): 0.343 | relative viability ([4]; first compound 8 µM): 0.441

NCI-H647
relative viability ([1]; first compound 0.2 µM): 0.586 | relative viability ([1]; first compound 0.6325 µM): 0.727 | relative viability ([1]; first compound 2 µM): 0.673 | relative viability ([1]; first compound 6.325 µM): 0.366 | relative viability ([2]; first compound 0.08 µM): 0.32 | relative viability ([2]; first compound 0.253 µM): 0.367 | relative viability ([2]; first compound 0.8 µM): 0.333 | relative viability ([2]; first compound 2.53 µM): 0.254 | relative viability ([2]; first compound 8 µM): 0.209 | relative viability ([3]; first compound 0.08 µM): 0.63 | relative viability ([3]; first compound 0.253 µM): 0.55 | relative viability ([3]; first compound 0.8 µM): 0.473 | relative viability ([3]; first compound 2.53 µM): 0.41 | relative viability ([3]; first compound 8 µM): 0.619 | relative viability ([4]; first compound 0.08 µM): 0.358 | relative viability ([4]; first compound 0.8 µM): 0.38 | relative viability ([4]; first compound 2.53 µM): 0.249 | relative viability ([4]; first compound 8 µM): 0.408

NCI-H650
relative viability ([1]; first compound 0.2 µM): 0.454 | relative viability ([1]; first compound 0.6325 µM): 0.459 | relative viability ([1]; first compound 2 µM): 0.466 | relative viability ([1]; first compound 6.325 µM): 0.427 | relative viability ([2]; first compound 0.08 µM): 0.958 | relative viability ([2]; first compound 0.253 µM): 0.906 | relative viability ([2]; first compound 0.8 µM): 0.805 | relative viability ([2]; first compound 2.53 µM): 0.663 | relative viability ([2]; first compound 8 µM): 0.711 | relative viability ([3]; first compound 0.08 µM): 0.464 | relative viability ([3]; first compound 0.253 µM): 0.489 | relative viability ([3]; first compound 0.8 µM): 0.372 | relative viability ([3]; first compound 2.53 µM): 0.256 | relative viability ([3]; first compound 8 µM): 0.301 | relative viability ([4]; first compound 0.08 µM): 0.931 | relative viability ([4]; first compound 0.8 µM): 0.908 | relative viability ([4]; first compound 2.53 µM): 0.541 | relative viability ([4]; first compound 8 µM): 0.813

NCI-H661
relative viability ([1]; first compound 0.2 µM): 0.295 | relative viability ([1]; first compound 0.6325 µM): 0.296 | relative viability ([1]; first compound 2 µM): 0.27 | relative viability ([1]; first compound 6.325 µM): 0.266 | relative viability ([2]; first compound 0.08 µM): 0.615 | relative viability ([2]; first compound 0.253 µM): 0.555 | relative viability ([2]; first compound 0.8 µM): 0.61 | relative viability ([2]; first compound 2.53 µM): 0.428 | relative viability ([2]; first compound 8 µM): 0.387 | relative viability ([3]; first compound 0.08 µM): 0.794 | relative viability ([3]; first compound 0.253 µM): 0.825 | relative viability ([3]; first compound 0.8 µM): 0.914 | relative viability ([3]; first compound 2.53 µM): 0.736 | relative viability ([3]; first compound 8 µM): 0.846 | relative viability ([4]; first compound 0.08 µM): 0.326 | relative viability ([4]; first compound 0.253 µM): 0.353 | relative viability ([4]; first compound 0.8 µM): 0.484 | relative viability ([4]; first compound 8 µM): 0.356

NCI-H727
relative viability ([1]; first compound 0.2 µM): 0.478 | relative viability ([1]; first compound 0.6325 µM): 0.415 | relative viability ([1]; first compound 2 µM): 0.447 | relative viability ([1]; first compound 6.325 µM): 0.348 | relative viability ([2]; first compound 0.08 µM): 0.382 | relative viability ([2]; first compound 0.253 µM): 0.358 | relative viability ([2]; first compound 0.8 µM): 0.394 | relative viability ([2]; first compound 8 µM): 0.386 | relative viability ([3]; first compound 0.08 µM): 1.1 | relative viability ([3]; first compound 0.253 µM): 1.11 | relative viability ([3]; first compound 0.8 µM): 1.17 | relative viability ([3]; first compound 8 µM): 0.96 | relative viability ([4]; first compound 0.08 µM): 0.357 | relative viability ([4]; first compound 0.253 µM): 0.302 | relative viability ([4]; first compound 0.8 µM): 0.356 | relative viability ([4]; first compound 8 µM): 0.404

NCI-H838
relative viability ([1]; first compound 0.2 µM): 0.769 | relative viability ([1]; first compound 0.6325 µM): 0.776 | relative viability ([1]; first compound 2 µM): 0.576 | relative viability ([1]; first compound 6.325 µM): 0.502 | relative viability ([2]; first compound 0.08 µM): 0.419 | relative viability ([2]; first compound 0.253 µM): 0.494 | relative viability ([2]; first compound 0.8 µM): 0.451 | relative viability ([2]; first compound 2.53 µM): 0.316 | relative viability ([2]; first compound 8 µM): 0.336 | relative viability ([3]; first compound 0.08 µM): 0.631 | relative viability ([3]; first compound 0.253 µM): 0.701 | relative viability ([3]; first compound 0.8 µM): 0.664 | relative viability ([3]; first compound 2.53 µM): 0.54 | relative viability ([3]; first compound 8 µM): 0.538 | relative viability ([4]; first compound 0.08 µM): 0.461 | relative viability ([4]; first compound 0.253 µM): 0.464 | relative viability ([4]; first compound 0.8 µM): 0.442 | relative viability ([4]; first compound 2.53 µM): 0.339 | relative viability ([4]; first compound 8 µM): 0.487

NCI-H1355
relative viability ([1]; first compound 0.2 µM): 0.485 | relative viability ([1]; first compound 0.6325 µM): 0.46 | relative viability ([1]; first compound 2 µM): 0.508 | relative viability ([1]; first compound 6.325 µM): 0.463 | relative viability ([2]; first compound 0.08 µM): 0.345 | relative viability ([2]; first compound 0.253 µM): 0.374 | relative viability ([2]; first compound 0.8 µM): 0.37 | relative viability ([2]; first compound 2.53 µM): 0.339 | relative viability ([2]; first compound 8 µM): 0.305 | relative viability ([3]; first compound 0.08 µM): 0.446 | relative viability ([3]; first compound 0.253 µM): 0.541 | relative viability ([3]; first compound 0.8 µM): 0.674 | relative viability ([3]; first compound 2.53 µM): 0.447 | relative viability ([3]; first compound 8 µM): 0.407 | relative viability ([4]; first compound 0.08 µM): 0.302 | relative viability ([4]; first compound 0.253 µM): 0.43 | relative viability ([4]; first compound 0.8 µM): 0.425 | relative viability ([4]; first compound 2.53 µM): 0.244 | relative viability ([4]; first compound 8 µM): 0.453

NCI-H1395
relative viability ([1]; first compound 0.2 µM): 0.461 | relative viability ([1]; first compound 0.6325 µM): 0.451 | relative viability ([1]; first compound 2 µM): 0.433 | relative viability ([1]; first compound 6.325 µM): 0.397 | relative viability ([2]; first compound 0.08 µM): 0.949 | relative viability ([2]; first compound 0.253 µM): 0.8 | relative viability ([2]; first compound 0.8 µM): 0.785 | relative viability ([2]; first compound 2.53 µM): 0.522 | relative viability ([2]; first compound 8 µM): 0.627 | relative viability ([3]; first compound 0.08 µM): 0.584 | relative viability ([3]; first compound 0.253 µM): 0.402 | relative viability ([3]; first compound 0.8 µM): 0.559 | relative viability ([3]; first compound 2.53 µM): 0.385 | relative viability ([3]; first compound 8 µM): 0.47 | relative viability ([4]; first compound 0.08 µM): 0.549 | relative viability ([4]; first compound 0.253 µM): 0.459 | relative viability ([4]; first compound 0.8 µM): 0.536 | relative viability ([4]; first compound 2.53 µM): 0.422 | relative viability ([4]; first compound 8 µM): 0.438

— the supplement of paper PMC10307832
